Experimental findings from patent US20260015360A1 (MOMA Therapeutics, Inc., priority 2023, published 2026) are described below.

The first test relates to DLD1 WT cells. The test can be described thus: DLD1 viability assay (CellTiter-Glo, 7 days), DLD1 WT. The class given is cell-based. The following applies: Homo sapiens, DLD-1, 168 h. A general note: Cellular ATP, detected with luciferase, serves as a proxy for viable cell number.
A word on the IC50: it is the point on the concentration scale where inhibition reaches its midpoint. Turning to `COc1cnc(Cl)cc1-c1cc(C)ncc1C(=O)Nc1nc2ncc(N3CCO[C@@H](C)C3)nc2s1` [Example 490, (S)-2′-chloro-5′-methoxy-6-methyl-N-(6-(2-methylmorpholino)thiazolo[4,5-b]pyrazin-2-yl)-[4,4′-bipyridine]-3-carboxamide], the IC50 is more than 10 µM.

The molecule `COc1cnc(Cl)cc1-c1cc(C)ncc1C(=O)Nc1nc2ncc(N3CCCCC3)nc2s1` [Example 491, 2′-chloro-5′-methoxy-6-methyl-N-(6-(piperidin-1-yl)thiazolo[4,5-b]pyrazin-2-yl)-[4,4′-bipyridine]-3-carboxamide] displayed a concentration for half-maximal inhibition (IC50) of more than 10 µM.

A further test deals with T1, biotinylated Avi-POLΘ[2-894] (Homo sapiens, UniProt O75417).
T1 construct: 1 nM biotinylated Avi-POLΘ[2-894]
T1 sequence (O75417 2-894 limits assumed): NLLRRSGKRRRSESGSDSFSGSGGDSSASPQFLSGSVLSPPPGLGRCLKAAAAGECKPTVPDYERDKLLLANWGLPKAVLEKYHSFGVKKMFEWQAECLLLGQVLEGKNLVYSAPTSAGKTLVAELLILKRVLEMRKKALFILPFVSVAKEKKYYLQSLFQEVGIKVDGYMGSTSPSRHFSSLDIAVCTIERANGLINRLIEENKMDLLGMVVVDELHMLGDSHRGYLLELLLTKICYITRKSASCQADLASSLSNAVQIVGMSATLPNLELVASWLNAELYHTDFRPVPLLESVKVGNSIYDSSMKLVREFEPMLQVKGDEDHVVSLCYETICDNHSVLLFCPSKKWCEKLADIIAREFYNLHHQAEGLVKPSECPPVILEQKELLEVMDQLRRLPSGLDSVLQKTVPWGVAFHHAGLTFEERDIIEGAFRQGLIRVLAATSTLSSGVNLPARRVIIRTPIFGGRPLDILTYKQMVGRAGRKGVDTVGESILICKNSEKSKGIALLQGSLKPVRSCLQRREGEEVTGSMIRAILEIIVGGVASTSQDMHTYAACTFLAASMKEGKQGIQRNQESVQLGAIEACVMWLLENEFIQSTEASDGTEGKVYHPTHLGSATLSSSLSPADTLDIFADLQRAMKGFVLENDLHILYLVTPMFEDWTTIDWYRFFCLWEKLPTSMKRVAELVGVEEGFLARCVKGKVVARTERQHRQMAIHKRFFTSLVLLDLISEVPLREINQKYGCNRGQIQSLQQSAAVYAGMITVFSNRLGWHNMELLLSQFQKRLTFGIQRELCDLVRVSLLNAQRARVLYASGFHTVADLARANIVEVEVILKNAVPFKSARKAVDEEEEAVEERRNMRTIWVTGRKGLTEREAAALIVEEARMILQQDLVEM
The test can be described thus: ATPase assay (ADP-Glo): POLΘ-mediated ATP hydrolysis. To be noted: read-out: Biochemical ATPase ADPGlo IC50. A general note: ADP-Glo turns the ADP formed in a reaction into a luminescent signal.
Consider `Cc1cc(N2CCC3(CNC(=O)C3)C2)c(C(=O)Nc2nc3ncc(-c4ccncc4)cc3s2)cn1` (racemic) [Example 201], for which the IC50 was more than 900 nM.

For `COc1cnc(Cl)cc1-c1cc(C)ncc1C(=O)Nc1nn2cc(C3CCC(CO)C3)nc2s1` (racemic) [Example 270], the 50% inhibitory concentration (IC50) is 15 to 50 nM.

Regarding `COc1ccccc1-c1cc(C)ncc1C(=O)Nc1nc2ncc(C3CCCCO3)cc2s1` (single isomer, unassigned) [Example 106, (S or R)-4-(2-methoxyphenyl)-6-methyl-N-(6-(tetrahydro-2H-pyran-2-yl)thiazolo[4,5-b]pyridin-2-yl)nicotinamide], the IC50 was in the range of 15 to 50 nM.

With `Cc1cc(N2CCC[C@H](C#N)C2)c(C(=O)Nc2nc3ncc(-c4ccncc4)cc3s2)cn1` (single isomer, unassigned) [Example 143], the IC50 fell in the range of 150 to 900 nM.

For the molecule `COc1cnc(Cl)cc1-c1cc(C)ncc1C(=O)Nc1nc2ncc(N3CC[C@@](C)(OC)[C@@H](F)C3)nc2s1` (single isomer, unassigned) [Example 363, 2′-chloro-N-(6-((3S or R,4R or S)-3-fluoro-4-methoxy-4-methylpiperidin-1-yl)thiazolo[4,5-b]pyrazin-2-yl)-5′-methoxy-6-methyl-[4,4′-bipyridine]-3-carboxamide], the IC50 lay within 15 to 50 nM.

For the molecule `COc1cnc(Cl)cc1-c1cc(C)ncc1C(=O)Nc1nc2ncc(N3CCO[C@H](C)[C@H]3C)nc2s1` (single isomer, unassigned) [Example 402, 2′-chloro-N-(6-((2R or S,3R or S)-2,3-dimethylmorpholino)thiazolo [4,5-b]pyrazin-2-yl)-5′-methoxy-6-methyl-[4,4′-bipyridine]-3-carboxamide], the concentration for half-maximal inhibition (IC50) was 1 to 15 nM.

For `COc1cnc(Cl)cc1-c1cc(C)ncc1C(=O)Nc1nc2ncc(N3CCO[C@@H](C)[C@H]3C)nc2s1` (single isomer, unassigned) [Example 408, 2′-chloro-N-(6-((2S or R,3R or S)-2,3-dimethylmorpholino)thiazolo [4,5-b]pyrazin-2-yl)-5′-methoxy-6-methyl-[4,4′-bipyridine]-3-carboxamide], the IC50 lay within 1 to 15 nM.

Consider `COc1cnc(Cl)cc1-c1cc(C)ncc1C(=O)Nc1nc2ncc(N3CCO[C@@H](C)[C@@H]3C)nc2s1` (single isomer, unassigned) [Example 415, 2′-chloro-N-(6-((2S or R,3S or R)-2,3-dimethylmorpholino)thiazolo [4,5-b]pyrazin-2-yl)-5′-methoxy-6-methyl-[4,4′-bipyridine]-3-carboxamide], for which the half-maximal inhibitory concentration (IC50) lay in the range of 15 to 50 nM.

As for `COc1ccc(C#N)cc1-c1cc(C)ncc1C(=O)Nc1nc2ncc(N3CCC(O)(C(F)F)CC3)nc2s1` (single isomer, unassigned) [Example 418, 4-(5-cyano-2-methoxyphenyl)-N-(6-(4-(difluoromethyl)-4-hydroxypiperidin-1-yl)thiazolo[4,5-b]pyrazin-2-yl)-6-methylnicotinamide], the 50% inhibitory concentration (IC50) was in the range of 1 to 15 nM.

For `COc1cnc(Cl)cc1-c1cc(C)ncc1C(=O)Nc1nc2ncc(C3CCOC3)nc2s1` (single isomer, unassigned) [Example 473, (R or S)-2′-chloro-5′-methoxy-6-methyl-N-(6-(tetrahydrofuran-3-yl)thiazolo[4,5-b]pyrazin-2-yl)-[4,4′-bipyridine]-3-carboxamide], the IC50 is 15 to 50 nM.

With `COc1cnc(Cl)cc1-c1cc(C)ncc1C(=O)Nc1nc2ncc(C3CCOC3)nc2s1` (single isomer, unassigned) [Example 479, (S or R)-2′-chloro-5′-methoxy-6-methyl-N-(6-(tetrahydrofuran-3-yl)thiazolo[4,5-b]pyrazin-2-yl)-[4,4′-bipyridine]-3-carboxamide], the IC50 lay in the range of 1 to 15 nM.

As for `COc1cnc(Cl)cc1-c1cc(C)ncc1C(=O)Nc1nc2ncc(C3CCOC3)cc2s1` (single isomer, unassigned) [Example 516, (S or R)-2′-chloro-5′-methoxy-6-methyl-N-(6-(tetrahydrofuran-3-yl)thiazolo[4,5-b]pyridin-2-yl)-[4,4′-bipyridine]-3-carboxamide], the concentration for half-maximal inhibition (IC50) lay in the range of 1 to 15 nM.

For `COc1cnc(Cl)cc1-c1cc(C)ncc1C(=O)Nc1nn2cc(C(=O)N[C@H]3C[C@](O)(C(F)(F)F)C3)nc2s1` [Example 32, 2-(2′-chloro-5′-methoxy-6-methyl-[4,4′-bipyridine]-3-carboxamido)-N-((1s,3s)-3-hydroxy-3-(trifluoromethyl)cyclobutyl)imidazo[2,1-b][1,3,4]thiadiazole-6-carboxamide], the IC50 is more than 900 nM.

For `COc1cnc(Cl)cc1-c1cc(C)ncc1C(=O)Nc1nn2cc(C(=O)N3CC[C@H](O)C3)nc2s1` [Example 36, (S)-2′-chloro-N-(6-(3-hydroxypyrrolidine-1-carbonyl)imidazo[2,1-b][1,3,4]thiadiazol-2-y1)-5′-methoxy-6-methyl-[4,4′-bipyridine]-3-carboxamide], the IC50 was 15 to 50 nM.

As for `COc1ccccc1-c1cc(C)ncc1C(=O)Nc1nc2ccc(Br)cc2o1` [Example 54, N-(6-Bromobenzo[d]oxazol-2-y1)-4-(2-methoxyphenyl)-6-methylnicotinamide], the IC50 lay in the range of 15 to 50 nM.

As to `COc1ccccc1-c1cc(C)ncc1C(=O)Nc1nc2ncc(C(F)(F)F)cc2s1` [Example 116], the IC50 fell in the range of 15 to 50 nM.

With `COc1ccccc1-c1cc(C)ncc1C(=O)Nc1nc2nnc(Cl)cc2s1` [Example 117], the half-inhibitory concentration (IC50) fell in the range of 15 to 50 nM.

`Cc1cc(C2=CCN(C(=O)OC(C)(C)C)CC2)c(C(=O)Nc2nc3ncc(-c4ccncc4)nc3s2)cn1` [Example 139]: the half-inhibitory concentration (IC50) was in the range of 150 to 900 nM.

As to `Cc1cc(N2CCN(c3nccs3)CC2)c(C(=O)Nc2nc3ncc(-c4ccncc4)cc3s2)cn1` [Example 159, 6-methyl-N-(6-(pyridin-4-yl)thiazolo[4,5-b]pyridin-2-yl)-4-(4-(thiazol-2-yl)piperazin-1-yl)nicotinamide], the IC50 lay within 150 to 900 nM.

On to `COc1ccccc1-c1cc(C)ncc1C(=O)Nc1nn2cc(C3CC3)nc2s1` [Example 168, N-(6-cyclopropylimi-dazo[2,1-b][1,3,4]thiadiazol-2-yl)-4-(2-methoxyphenyl)-6-methylnicotinamide], for which the IC50 lay in the range of 150 to 900 nM.

For `CC(=O)N1CC2(C1)CN(c1cc(C)ncc1C(=O)Nc1nc3ncc(-c4ccncc4)cc3s1)C2` [Example 202], the 50% inhibitory concentration (IC50) is more than 900 nM.

Turning to `COc1cnc(Cl)cc1-c1cc(C)ncc1C(=O)Nc1nn2cc(C(=O)N[C@H]3CC[C@@H](O)CC3)nc2s1` [Example 292], the IC50 lay within 1 to 15 nM.

Take `COc1cnc(Cl)cc1-c1cc(C)ncc1C(=O)Nc1nn2cc(C3CCCCC3)nc2s1` [Example 315]: the IC50 was in the range of 1 to 15 nM.

Consider `COc1ccc(C#N)cc1-c1cc(C)ncc1C(=O)Nc1nn2cc(C(=O)N(C)C)nc2s1` [Example 316, 2-(4-(5-cyano-2-methoxyphenyl)-6-methylnicotinamido)-N,N-dimethylimidazo[2,1-b][1,3,4]thiadiazole-6-carboxamide], for which the IC50 fell in the range of 15 to 50 nM.

In the case of `COc1cnc(Cl)cc1-c1cc(C)ncc1C(=O)Nc1nc2ncc(C3(OC)CCOCC3)nc2s1` [Example 373, 2′-chloro-5′-methoxy-N-(6-(4-methoxytetrahydro-2H-pyran-4-yl)thiazolo[4,5-b]pyrazin-2-yl)-6-methyl-[4,4′-bipyridine]-3-carboxamide], the IC50 was 1 to 15 nM.

On to `COc1cnc(Cl)cc1-c1cc(C)ncc1C(=O)Nc1nc2ncc(C3(O)CCOCC3)nc2s1` [Example 390, 2′-chloro-N-(6-(4-hydroxytetrahydro-2H-pyran-4-yl)thiazolo[4,5-b]pyrazin-2-yl)-5′-methoxy-6-methyl-[4,4′-bipyridine]-3-carboxamide], for which the half-maximal inhibitory concentration (IC50) lay in the range of 15 to 50 nM.

For `COc1cnc(Cl)cc1-c1cc(C)ncc1C(=O)Nc1nc2ncc(N3CCO[C@H]4CCC[C@@H]43)nc2s1` [Example 393, 2′-chloro-N-(6-((4aS,7aS)-hexahydrocyclopenta[b][1,4]oxazin-4(4aH)-yl)thiazolo[4,5-b]pyrazin-2-yl)-5′-methoxy-6-methyl-[4,4′-bipyridine]-3-carboxamide], the IC50 was in the range of 15 to 50 nM.

Regarding `COc1cnc(Cl)cc1-c1cc(C)ncc1C(=O)Nc1nc2ncc(N3CCO[C@@H]4CCC[C@@H]43)nc2s1` [Example 395, 2′-chloro-N-(6-((4aS,7aR)-hexahydrocyclopenta[b][1,4]oxazin-4(4aH)-yl)thiazolo[4,5-b]pyrazin-2-yl)-5′-methoxy-6-methyl-[4,4′-bipyridine]-3-carboxamide], the IC50 was 15 to 50 nM.

As to `COc1cnc(Cl)cc1-c1cc(C)ncc1C(=O)Nc1nc2ncc(N3[C@H](C)COC[C@@H]3C)nc2s1` [Example 404, 2′-chloro-N-(6-((3R,5S)-3,5-dimethylmorpholino)thiazolo [4,5-b]pyrazin-2-yl)-5′-methoxy-6-methyl-[4,4′-bipyridine]-3-carboxamide], the IC50 was 15 to 50 nM.

In the case of `COc1cnc(Cl)cc1-c1cc(C)ncc1C(=O)Nc1nc2ncc(N3CCOC[C@@H]3C(F)(F)F)nc2s1` [Example 414, (R)-2′-chloro-5′-methoxy-6-methyl-N-(6-(3-(trifluoromethyl)morpholino)thiazolo[4,5-b]pyrazin-2-yl)-[4,4′-bipyridine]-3-carboxamide], the half-maximal inhibitory concentration (IC50) is 15 to 50 nM.

Another test relates to DLD1 BRCA2 (−/−) cells. The test can be described thus: DLD1 viability assay (CellTiter-Glo, 7 days), DLD1 BRCA2 (−/−). The class given is cell-based. To be noted: Homo sapiens, DLD-1, 168 h, read-out: Viability IC50 (μM) DLD1 BRCA2 null.
Regarding `COc1cnc(Cl)cc1-c1cc(C)ncc1C(=O)Nc1nc2ncc(N3CCO[C@@H](C)C3)nc2s1` [Example 490, (S)-2′-chloro-5′-methoxy-6-methyl-N-(6-(2-methylmorpholino)thiazolo[4,5-b]pyrazin-2-yl)-[4,4′-bipyridine]-3-carboxamide], the 50% inhibitory concentration (IC50) was 0.001 to 0.1 µM.

Take `COc1cnc(Cl)cc1-c1cc(C)ncc1C(=O)Nc1nc2ncc(N3CCCCC3)nc2s1` [Example 491, 2′-chloro-5′-methoxy-6-methyl-N-(6-(piperidin-1-yl)thiazolo[4,5-b]pyrazin-2-yl)-[4,4′-bipyridine]-3-carboxamide]: the 50% inhibitory concentration (IC50) was in the range of 0.001 to 0.1 µM.
